This is an account of results in ChEMBL document CHEMBL1201862, “PubChem BioAssay data set” (2004).

Each structure is given as a SMILES string. Active and inactive are the calls of the source.

A word on the AC50: it is the midpoint of the concentration-response curve, whichever way the signal moves. The term EC50 denotes the concentration that produces a half-maximal response. What is called IC50 is the concentration that gives 50% inhibition.

Experiment [1] in a line: LGR2 antagonists, dose response, cell-based, HEK293, CRE-luciferase reporter, cherry pick, set 2 (AID 743343).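 Also: transfected cells were stimulated with diluted bursicon conditioned medium after compound addition.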 It counts as functional. Background: In a reporter assay the amount or activity of a reporter protein is the signal.
A short description of experiment [2]: MC4R antagonists, dose response, counter-screen for LGR2 antagonist project, cell-based, plate reader, cherry pick (AID 743444).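 Also: transfected HEK 293 cells stimulated with alpha-MSH peptide; potency of inhibitors of the alpha-MSH evoked signal.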 It counts as functional. In general terms: Counterscreens check selectivity or assay interference.
The test system of experiment [3] is HEK293. Put plainly: inhibitors of LMP1-driven NF-kB reporter, dose response, cell-based, HEK293, luciferase, cherry-pick (AID 588343). It counts as functional. Particulars: Homo sapiens.
Experiment [4] addresses T1, Replicative DNA helicase DnaB (Mycobacterium tuberculosis, UniProt P9WMR3).
T1 sequence (P9WMR3 whole entry): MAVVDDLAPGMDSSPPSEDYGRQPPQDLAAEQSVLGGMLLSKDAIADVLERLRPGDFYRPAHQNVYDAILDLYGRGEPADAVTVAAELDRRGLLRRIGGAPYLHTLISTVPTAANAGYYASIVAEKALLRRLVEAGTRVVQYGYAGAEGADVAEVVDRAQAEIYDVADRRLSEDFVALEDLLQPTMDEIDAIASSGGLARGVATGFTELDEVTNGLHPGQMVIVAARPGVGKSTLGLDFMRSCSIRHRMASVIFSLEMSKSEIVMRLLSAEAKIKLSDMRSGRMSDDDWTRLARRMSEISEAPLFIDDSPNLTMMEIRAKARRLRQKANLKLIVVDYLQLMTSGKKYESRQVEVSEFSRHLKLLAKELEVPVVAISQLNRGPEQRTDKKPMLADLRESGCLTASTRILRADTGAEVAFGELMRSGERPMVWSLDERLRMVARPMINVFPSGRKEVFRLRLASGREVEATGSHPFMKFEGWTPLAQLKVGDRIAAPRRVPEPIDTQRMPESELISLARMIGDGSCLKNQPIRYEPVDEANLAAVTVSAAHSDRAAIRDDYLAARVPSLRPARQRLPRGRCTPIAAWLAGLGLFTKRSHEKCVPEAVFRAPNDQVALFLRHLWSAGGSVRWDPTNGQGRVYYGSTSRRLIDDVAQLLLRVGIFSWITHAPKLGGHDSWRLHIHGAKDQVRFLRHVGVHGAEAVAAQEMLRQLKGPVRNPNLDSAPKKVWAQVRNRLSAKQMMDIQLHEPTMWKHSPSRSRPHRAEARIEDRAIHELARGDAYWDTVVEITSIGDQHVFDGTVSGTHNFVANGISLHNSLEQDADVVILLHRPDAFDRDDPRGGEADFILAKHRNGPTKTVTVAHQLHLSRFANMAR
Put plainly: DnaB intein splicing inhibitors, dose response, biochemical, cell-free fluorescence (AID 449749). It counts as functional.

In experiment [5] the target is T2, Protein RecA (Mycobacterium tuberculosis, UniProt P9WHJ3).
T2 sequence (P9WHJ3 whole entry): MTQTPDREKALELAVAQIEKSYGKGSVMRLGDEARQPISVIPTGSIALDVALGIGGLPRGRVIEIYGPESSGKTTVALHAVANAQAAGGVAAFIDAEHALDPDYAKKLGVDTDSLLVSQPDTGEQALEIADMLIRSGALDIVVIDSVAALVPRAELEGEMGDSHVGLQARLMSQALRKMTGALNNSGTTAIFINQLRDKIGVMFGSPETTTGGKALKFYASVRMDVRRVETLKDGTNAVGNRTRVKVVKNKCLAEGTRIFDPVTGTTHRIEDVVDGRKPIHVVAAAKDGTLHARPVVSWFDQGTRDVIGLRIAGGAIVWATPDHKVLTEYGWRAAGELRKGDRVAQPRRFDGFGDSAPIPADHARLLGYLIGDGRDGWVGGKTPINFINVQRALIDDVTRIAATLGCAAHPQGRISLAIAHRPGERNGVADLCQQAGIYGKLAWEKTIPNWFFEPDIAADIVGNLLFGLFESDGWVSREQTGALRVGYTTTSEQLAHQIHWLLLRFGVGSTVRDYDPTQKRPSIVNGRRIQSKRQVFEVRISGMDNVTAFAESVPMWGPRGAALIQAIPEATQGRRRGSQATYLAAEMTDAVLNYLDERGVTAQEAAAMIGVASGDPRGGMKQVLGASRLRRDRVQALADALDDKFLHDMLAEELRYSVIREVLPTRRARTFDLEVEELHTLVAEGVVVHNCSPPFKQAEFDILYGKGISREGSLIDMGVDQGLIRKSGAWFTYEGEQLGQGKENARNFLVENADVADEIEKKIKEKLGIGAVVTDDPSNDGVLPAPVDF
Put plainly: Fluorescence Cell-Free Homogeneous Dose Retest to Identify Inhibitors of RecA-Intein Splicing Activity. [Related pubchem assays (depositor defined):AID2097, AID2223, AID489010, AID492950]. It counts as functional.

Experiment [6] has as its target Nonstructural protein 1 (Influenza A virus, UniProt Q194T2). It counts as functional, Influenza A virus (A/California/07/2009(H1N1)).
In experiment [7] the target is T3, Apoptotic protease-activating factor 1 (Homo sapiens, UniProt O14727).
T3 sequence (O14727 whole entry): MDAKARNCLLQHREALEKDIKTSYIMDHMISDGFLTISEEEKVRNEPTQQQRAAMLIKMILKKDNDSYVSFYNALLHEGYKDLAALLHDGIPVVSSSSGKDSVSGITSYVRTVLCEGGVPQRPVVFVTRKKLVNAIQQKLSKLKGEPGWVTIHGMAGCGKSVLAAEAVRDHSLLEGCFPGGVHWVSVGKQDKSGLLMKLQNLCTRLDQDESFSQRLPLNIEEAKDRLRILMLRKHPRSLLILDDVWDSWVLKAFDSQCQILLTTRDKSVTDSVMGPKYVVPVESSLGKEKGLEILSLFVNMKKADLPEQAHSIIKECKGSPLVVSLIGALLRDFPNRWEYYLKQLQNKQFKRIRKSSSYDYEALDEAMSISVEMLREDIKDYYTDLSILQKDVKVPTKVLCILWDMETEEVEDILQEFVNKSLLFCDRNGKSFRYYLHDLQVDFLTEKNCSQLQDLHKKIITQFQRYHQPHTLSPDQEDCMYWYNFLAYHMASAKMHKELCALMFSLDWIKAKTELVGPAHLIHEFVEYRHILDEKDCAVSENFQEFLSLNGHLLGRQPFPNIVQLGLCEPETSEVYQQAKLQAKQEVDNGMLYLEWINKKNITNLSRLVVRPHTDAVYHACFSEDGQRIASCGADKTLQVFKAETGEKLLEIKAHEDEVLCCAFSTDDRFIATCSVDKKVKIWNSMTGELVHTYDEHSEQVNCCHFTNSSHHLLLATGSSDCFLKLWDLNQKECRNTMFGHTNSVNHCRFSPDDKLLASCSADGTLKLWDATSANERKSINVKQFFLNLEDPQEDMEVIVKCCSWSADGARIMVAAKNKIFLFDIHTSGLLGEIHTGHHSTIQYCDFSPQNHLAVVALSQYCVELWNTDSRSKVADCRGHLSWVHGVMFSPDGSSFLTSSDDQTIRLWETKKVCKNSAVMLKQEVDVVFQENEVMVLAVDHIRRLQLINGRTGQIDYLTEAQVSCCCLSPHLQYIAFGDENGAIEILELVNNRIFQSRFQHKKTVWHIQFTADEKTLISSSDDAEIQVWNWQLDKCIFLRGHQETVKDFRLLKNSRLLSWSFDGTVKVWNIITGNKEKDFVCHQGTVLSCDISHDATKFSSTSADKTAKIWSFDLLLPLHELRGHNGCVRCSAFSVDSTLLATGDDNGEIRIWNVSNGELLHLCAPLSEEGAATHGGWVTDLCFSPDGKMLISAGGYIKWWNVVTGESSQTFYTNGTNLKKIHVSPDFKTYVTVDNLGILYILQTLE
It counts as functional.

Experiment [8] in a line: ZM109 Env clade C HIV-1 fusion inhibitors, dose response, HeLa effector, CEM target cells, luciferase, cherry-pick (AID 652058). It counts as functional, cell-based.
The nature of experiment [9]: inhibitors of clade B AD8 Env fusion, dose response, cell-based, cherry-pick (AID 652062).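 Also: luciferase signal from cell-cell fusion driven by HIV-1 clade B AD8 Env; potency is for inhibitors of fusion seen as a drop in luminescence.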 It counts as functional.
The test system of experiment [10] is INS1. Put plainly: beta cell apoptosis inhibitors, cytokine rescue, dose response, luminescence, retest (AID 449756).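 Also: cell death triggered by IL-1 beta plus TNF-alpha plus IFN-gamma mixture; protective hits raise ATP signal compared with cytokine alone wells.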 It counts as functional, cell-based. Particulars: Rattus norvegicus.
In experiment [11] the target is T4, Cytochrome P450 1A2 (Homo sapiens, UniProt P05177).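 Also: PubChem cytochrome P450 panel assay, CYP1A2 panel member.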
T4 sequence (P05177 whole entry): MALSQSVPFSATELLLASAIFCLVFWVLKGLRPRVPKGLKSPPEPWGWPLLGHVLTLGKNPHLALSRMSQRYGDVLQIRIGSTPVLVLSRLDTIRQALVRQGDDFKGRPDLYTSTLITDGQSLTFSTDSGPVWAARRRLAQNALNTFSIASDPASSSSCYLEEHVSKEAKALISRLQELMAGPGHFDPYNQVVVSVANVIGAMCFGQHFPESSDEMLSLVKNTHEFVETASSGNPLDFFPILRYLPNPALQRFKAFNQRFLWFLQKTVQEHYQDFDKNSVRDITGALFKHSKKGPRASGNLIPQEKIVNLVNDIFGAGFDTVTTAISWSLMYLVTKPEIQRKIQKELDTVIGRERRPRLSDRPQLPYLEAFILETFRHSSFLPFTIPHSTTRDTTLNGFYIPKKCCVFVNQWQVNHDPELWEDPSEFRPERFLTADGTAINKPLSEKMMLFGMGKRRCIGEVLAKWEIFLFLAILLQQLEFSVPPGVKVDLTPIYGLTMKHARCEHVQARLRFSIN

Experiment [12] in a line: non-specific cell cytotoxicity, dose response, cytotoxicity control for PAX8 inhibitor project, plate reader, dry powder samples (AID 743021). It counts as functional, cell-based.
Experiment [13] is described as follows: Luminescence Cell-Based Dose Retest to Confirm Inhibitors of Cancer Stem Cells. [Related pubchem assays (depositor defined):AID2717, AID2721]. It counts as functional. Particulars: Homo sapiens.
Experiment [14] in a line: Shn3 3'UTR reporter inhibitors, dose response, cell-based, Clone20 osteoblasts, firefly luciferase, cherry-picked (AID 624132).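 Also: firefly luciferase luminescence from reporter carrying the Shn3 3'UTR in osteoblasts.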 It counts as functional.
A short description of experiment [15]: HepG2 cell cytotoxicity, dose response, cytotoxicity control for Shn3 inhibitor project, CellTiter-Glo, cherry-picked (AID 624134). It counts as functional, cell-based. For orientation: ATP-based viability assays read luminescence as a measure of living cells.
In experiment [16] the target is Paired box protein Pax-8 (Homo sapiens, UniProt Q06710). Put plainly: inhibitors of PAX8-driven TPO luciferase reporter, dose response, RMG-I cells, cherry-pick (AID 687027).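 Also: luciferase reporter driven by Pax8 target thyroperoxidase promoter measured by SteadyGlo luminescence.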 It counts as functional, cell-based.
Experiment [17] in a line: inhibitors of HIV Env-driven cell fusion, dose response, cherry-pick (AID 652057). It counts as functional, cell-based.

Sequence of Paired box protein Pax-8 (Q06710 whole entry, the tested form may be a part): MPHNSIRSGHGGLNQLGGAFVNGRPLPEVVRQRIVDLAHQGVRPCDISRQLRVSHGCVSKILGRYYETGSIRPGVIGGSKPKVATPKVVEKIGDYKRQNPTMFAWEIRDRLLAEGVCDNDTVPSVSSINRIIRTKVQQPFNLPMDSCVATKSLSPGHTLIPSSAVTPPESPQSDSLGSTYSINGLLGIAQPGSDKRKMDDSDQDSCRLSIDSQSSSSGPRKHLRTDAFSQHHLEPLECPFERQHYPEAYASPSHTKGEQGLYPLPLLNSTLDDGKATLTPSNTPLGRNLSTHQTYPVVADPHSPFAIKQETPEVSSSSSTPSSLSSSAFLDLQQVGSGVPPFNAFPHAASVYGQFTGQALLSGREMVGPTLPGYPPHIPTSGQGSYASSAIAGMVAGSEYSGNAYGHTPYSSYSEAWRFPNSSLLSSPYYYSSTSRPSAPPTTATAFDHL
Sequence of Nonstructural protein 1 (Q194T2 whole entry): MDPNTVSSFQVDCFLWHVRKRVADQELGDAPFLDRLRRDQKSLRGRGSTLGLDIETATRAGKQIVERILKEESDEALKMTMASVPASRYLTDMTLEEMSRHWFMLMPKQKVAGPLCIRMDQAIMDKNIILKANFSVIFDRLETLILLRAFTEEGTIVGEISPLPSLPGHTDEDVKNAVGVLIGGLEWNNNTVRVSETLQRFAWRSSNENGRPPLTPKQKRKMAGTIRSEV

`Cc1c(NC(=O)c2cccc(NC(=O)COc3ccccc3C#N)c2)c(=O)n(-c2ccccc2)n1C`: the AC50 in experiment [1] is 2.66 µM (active); in [2], 4.53 µM (active); in experiment [3], 5.77 µM (active).

Regarding `Cc1cc(C(=O)N/N=C/c2c(C)nn(-c3ccccc3)c2O)[nH]n1`, in experiment [4], the AC50 was 226 µM (active). In addition, in [5], the half-maximal effective concentration (EC50) is 27 µM (active). The concentration for half-maximal inhibition (IC50) was 11.8 µM (active) in experiment [6] and 6.97 µM (active) in experiment [7].

For the compound `CCN(C1CCCCC1)S(=O)(=O)c1ccc(S(=O)(=O)NCc2ccncc2)cc1`, the AC50 in experiment [8] was 3.52 µM (active); in experiment [9], 7.99 µM (active); in [10] it was 5.12 µM (active); in experiment [11] it was 15.8 µM (inconclusive).

For the compound `O=c1cc(-c2ccc(O)cc2)oc2ccc3ccccc3c12`, the half-maximal activity concentration (AC50) in [12] was 31.3 µM (active); in experiment [13] it was 2.15 µM (active); in [14], 5.41 µM (active); in [15], 41.6 µM (active); in [16], 8.88 µM (active).

Turning to `COc1ccc(S(=O)(=O)N(C)C[C@@H]2Oc3ccc(NC(=O)C4CCCCC4)cc3CC(=O)N([C@H](C)CO)C[C@@H]2C)cc1`, the figures for the concentration at half-maximal activity (AC50) in experiment [17], in experiment [8] and in experiment [9] were 0.574 µM (active), 2.96 µM (active) and 4.51 µM (active), respectively.
